# Where a name gives a salt, the structure may show the parent alone.
# System: IL-2 production
# Assay: Inhibition of IL-2 production in PHA-activated Jurkat cells (ELISA)
# Format: cell-based
# Conditions: Homo sapiens, PHA 2.5 μg/mL, IL-2 ELISA
# Procedure: Jurkat cells were placed in a 96 well plate (0.5 million cells per well in 1% FBS medium) then a test compound of this invention was added at different concentrations. After 10 minutes, the cells were activated with PHA (final concentration 2.5 μg/mL) and incubated for 20 hours at 37° C. under CO2. The final volume was 200 μL. Following incubation, the cells were centrifuged and the supernatants collected and stored at −70° C. prior to assaying for IL-2 production. A commercial ELISA kit (IL-2 Eli-pair, Diaclone Research, Besancon, France) was used to detect production of IL-2, from which dose response curves were obtained.
"IC50 (Jurkat, 20 h) [nM]",SMILES,IC50 (20 hours) [nM]
> 1000,"CC(O)c1nc(NC(=O)c2c(F)cccc2F)sc1-c1cccc(C(F)(F)F)c1 (centres unmarked) [Compound 74, 2,6-Difluoro-N-(4-(1-hydroxyethyl)-5-(3-(trifluoromethyl)phenyl)thiazol-2-yl)benzamide]",
> 1000,"O=C(Nc1nc(/C=N\O)c(-c2cccc(C(F)(F)F)c2)s1)c1c(F)cccc1F [Compound 72, (Z)-2,6-difluoro-N-(4-((hydroxyimino)methyl)-5-(3-(trifluoromethyl)phenyl)thiazol-2-yl)benzamide]",
50 to 100,"O=C(Nc1nc(C2CC2)c(-c2cccc(C(F)(F)F)c2)s1)c1c(F)cccc1F [Compound 52, N-(4-Cyclopropyl-5-(3-(trifluoromethyl)phenyl)thiazol-2-yl)-2,6-difluorobenzamide]",
> 1000,"Cc1nc(-c2sc(NC(=O)c3c(F)cccc3F)nc2C)cs1 [Compound 114b, N-(2,4′-Dimethyl-4,5′-bithiazol-2′-yl)-2,6-difluorobenzamide]",
> 1000,"CCOC(=O)c1nc(-c2nc(NC(=O)c3c(F)cccc3F)sc2-c2cccc(C(F)(F)F)c2)c(C)s1 [Compound 96, Ethyl 2′-(2,6-difluorobenzamido)-5-methyl-5′-(3-(trifluoromethyl)phenyl)-4,4′-bithiazole-2-carboxylate]",
100 to 200,"O=C(Nc1nc(-c2ccon2)c(-c2cccc(C(F)(F)F)c2)s1)c1c(F)cccc1F [Compound 106, 2,6-Difluoro-N-(4-(isoxazol-3-yl)-5-(3-(trifluoromethyl)phenyl)thiazol-2-yl)benzamide]",
> 1000,"CC(C)(O)c1nc(NC(=O)c2c(F)cccc2F)sc1-c1cccc(C(F)(F)F)c1 [Compound 68, 2,6-Difluoro-N-(4-(2-hydroxypropan-2-yl)-5-(3-(trifluoromethyl)phenyl)thiazol-2-yl)benzamide]",
> 1000,"Cc1cnccc1C(=O)Nc1nc(C(=O)O)c(-c2cccc(C(F)(F)F)c2)s1 [Compound 112, 2-(3-Methylisonicotinamido)-5-(3-(trifluoromethyl)phenyl)thiazole-4-carboxylic acid]",
200 to 500,"O=C(Nc1nc(C2=NCCO2)c(-c2cccc(C(F)(F)F)c2)s1)c1c(F)cccc1F [Compound 89, N-(4-(4,5-dihydrooxazol-2-yl)-5-(3-(trifluoromethyl)phenyl)thiazol-2-yl)-2,6-difluorobenzamide]",
200 to 500,"Cc1nc(-c2nc(NC(=O)c3c(F)cccc3F)sc2-c2cccc(C(F)(F)F)c2)cs1 [Compound 86, 2,6-Difluoro-N-(2′-methyl-5-(3-(trifluoromethyl)phenyl)-4,4′-bithiazol-2-yl)benzamide]",
50 to 100,"CCC(=O)c1nc(NC(=O)c2c(F)cccc2F)sc1-c1cccc(C(F)(F)F)c1 [Compound 94, 2,6-difluoro-N-(4-propionyl-5-(3-(trifluoromethyl)phenyl)thiazol-2-yl)benzamide]",
200 to 500,"O=C(Nc1nc(Cl)c(-c2cccc(C(F)(F)F)c2)s1)c1c(F)cccc1F [Compound 103, N-(4-Chloro-5-(3-(trifluoromethyl)phenyl)thiazol-2-yl)-2,6-difluorobenzamide]",
100 to 200,"Cc1nc(NC(=O)c2c(F)cccc2F)sc1-c1ccc(Br)s1 [Compound 59, N-(5-(5-Bromothiophen-2-yl)-4-methylthiazol-2-yl)-2,6-difluorobenzamide]",
> 1000,"CCOC(CNC(=O)c1nc(NC(=O)c2c(F)cccc2F)sc1-c1cccc(C(F)(F)F)c1)OCC [Compound 98, N-(2,2-diethoxyethyl)-2-(2,6-difluorobenzamido)-5-(3-(trifluoromethyl)phenyl)thiazole-4-carboxamide]",
100 to 200,"COc1ccc(OC)c(-c2cnc(NC(=O)c3c(F)cccc3F)s2)c1 [Compound 3, N-[5-(2,5-Dimethoxy-phenyl)-thiazol-2-yl]-2,6-difluoro-benzamide]",
200 to 500,"Cc1noc(-c2nc(NC(=O)c3c(F)cccc3F)sc2-c2cccc(C(F)(F)F)c2)n1 [Compound 92, 2,6-difluoro-N-(4-(3-methyl-1,2,4-oxadiazol-5-yl)-5-(3-(trifluoromethyl)phenyl)thiazol-2-yl)benzamide]",
,"Cc1nc(NC(=O)c2c(F)cccc2F)sc1-c1cccc(C(F)(F)F)c1 [Compound 48, Sodium (2,6-difluorobenzoyl)(4-methyl-5-(3-(trifluoromethyl)phenyl)thiazol-2-yl)amide]",50 to 100
> 1000,"COC(=O)c1cccc(-c2sc(NC(=O)c3c(F)cccc3F)nc2C(=O)OC)c1 [Compound 114, Methyl 2-(2,6-difluorobenzamido)-5-(3-(methoxycarbonyl)phenyl)thiazole-4-carboxylate]",
200 to 500,"Cc1nc(NC(=O)c2c(F)cccc2F)sc1-c1cc(Br)sc1Br [Compound 61, N-(5-(2,5-Dibromothiophen-3-yl)-4-methylthiazol-2-yl)-2,6-difluorobenzamide]",

"IC50 (Jurkat, 20 h) [nM]",SMILES,IC50 (20 hours) [nM]
200 to 500,"Cc1nc(NC(=O)c2c(F)cccc2F)sc1-c1cc(Br)c2c(c1)OCO2 [Compound 56, N-(5-(7-Bromobenzo[d][1,3]dioxol-5-yl)-4-methylthiazol-2-yl)-2,6-difluorobenzamide]",
200 to 500,"O=C(Nc1c(F)cccc1F)c1cnc(-c2cc(-c3nccs3)ccc2Cl)s1 [Compound 125, 2-(2-chloro-5-(thiazol-2-yl)phenyl)-N-(2,6-difluorophenyl)thiazole-5-carboxamide]",
30 to 50,"Cc1ccc(-c2nccs2)cc1-c1ncc(C(=O)Nc2c(F)cccc2F)s1 [Compound 122, N-(2,6-difluorophenyl)-2-(2-methyl-5-(thiazol-2-yl)phenyl)thiazole-5-carboxamide]",
200 to 500,"Cc1nc(C(=O)Nc2c(F)cccc2F)sc1-c1cc(C(F)(F)F)ccc1Cl [Compound 119, 5-(2-chloro-5-(trifluoromethyl)phenyl)-N-(2,6-difluorophenyl)-4-methylthiazole-2-carboxamide]",
200 to 500,"COc1ccc(OC)c(-c2sc(NC(=O)c3c(F)cccc3F)nc2C)c1 [Compound 55, N-(5-(2,5-Dimethoxyphenyl)-4-methylthiazol-2-yl)-2,6-difluorobenzamide]",
200 to 500,"Cc1nc(NC(=O)c2c(F)cccc2F)sc1-c1ccc2c(c1)OCO2 [Compound 57, N-(5-(Benzo[d][1,3]dioxol-5-yl)-4-methylthiazol-2-yl)-2,6-difluorobenzamide]",
> 1000,"Cc1nc(NC(=O)c2c(F)cccc2F)sc1-c1ccsc1 [Compound 62, 2,6-Difluoro-N-(4-methyl-5-(thiophen-3-yl)thiazol-2-yl)benzamide]",
> 1000,"NC(=O)c1nc(NC(=O)c2c(F)cccc2F)sc1-c1cccc(C(F)(F)F)c1 [Compound 97, 2-(2,6-Difluorobenzamido)-5-(3-(trifluoromethyl)phenyl)thiazole-4-carboxamide]",
200 to 500,"CC(C)c1nc(NC(=O)c2c(F)cccc2F)sc1-c1cccc(C(F)(F)F)c1 [Compound 69, 2,6-Difluoro-N-(4-isopropyl-5-(3-(trifluoromethyl)phenyl)thiazol-2-yl)benzamide]",
200 to 500,"Cc1ccc(-c2nnco2)cc1-c1ncc(C(=O)Nc2c(F)cccc2F)s1 [Compound 128, N-(2,6-difluorophenyl)-2-(2-methyl-5-(1,3,4-oxadiazol-2-yl)phenyl)thiazole-5-carboxamide]",
> 1000,"O=C(Nc1nc(-c2ncc[nH]2)c(-c2cccc(C(F)(F)F)c2)s1)c1c(F)cccc1F [Compound 78, N-(4-(1H-Imidazol-2-yl)-5-(3-(trifluoromethyl)phenyl)thiazol-2-yl)-2,6-difluorobenzamide hydrochloride]",
200 to 500,"COC(=O)c1cccc(-c2sc(NC(=O)c3c(F)cccc3F)nc2C)c1 [Compound 8, 3-[2-(2,6-Difluoro-benzoylamino)-4-methyl-thiazol-5-yl]-benzoic acid methyl ester]",
> 1000,"O=C(Nc1nc(C(O)c2ccccn2)c(-c2cccc(C(F)(F)F)c2)s1)c1c(F)cccc1F (centres unmarked) [Compound 83, 2,6-difluoro-N-(4-(hydroxy(pyridin-2-yl)methyl)-5-(3-(trifluoromethyl)phenyl)thiazol-2-yl)benzamide]",
> 1000,"O=C(O)c1nc(NC(=O)c2c(F)cccc2F)sc1-c1cccc(C(F)(F)F)c1 [Compound 66, 2-(2,6-difluorobenzamido)-5-(3-(trifluoromethyl)phenyl)thiazole-4-carboxylic acid]",
> 1000,"CON(C)C(=O)c1nc(NC(=O)c2c(F)cccc2F)sc1-c1cccc(C(F)(F)F)c1 [Compound 93, 2-(2,6-difluorobenzamido)-N-methoxy-N-methyl-5-(3-(trifluoromethyl)phenyl)thiazole-4-carboxamide]",
200 to 500,"O=C(Nc1nc(-c2nnco2)c(-c2cccc(C(F)(F)F)c2)s1)c1c(F)cccc1F [Compound 90, N-(4-(1,3,4-oxadiazol-2-yl)-5-(3-(trifluoromethyl)phenyl)thiazol-2-yl)-2,6-difluorobenzamide]",
> 1000,"O=C(Nc1c(F)cccc1F)c1cnc(-c2cccc(-c3ncco3)c2)s1 [Compound 124, N-(2,6-difluorophenyl)-2-(3-(oxazol-2-yl)phenyl)thiazole-5-carboxamide]",
> 1000,"C=CCOc1ccc(C(F)(F)F)cc1-c1sc(NC(=O)c2c(F)cccc2F)nc1C(=O)OC [Compound 63, Methyl 5-(2-(allyloxy)-5-(trifluoromethyl)phenyl)-2-(2,6-difluorobenzamido)thiazole-4-carboxylate]",

SMILES,"IC50 (Jurkat, 20 h) [nM]",IC50 (20 hours) [nM]
"Cc1nc(NC(=O)c2c(F)cccc2F)sc1-c1cccc(C(F)(F)F)c1 [Compound 9, 2,6-Difluoro-N-[4-methyl-5-(3-trifluoromethyl-phenyl)-thiazol-2-yl]-benzamide]",30 to 50,

# Reference: patent US8455658B2, “Thiazole and thiadiazole compounds for inflammation and immune-related uses” (Synta Pharmaceuticals Corp., priority 2006, dated 2013)
